The target of one experiment is p38 MAPK (Homo sapiens, UniProt Q16539). As to the kind of experiment: Inhibition of p38 MAPK. The format is biochemical.
Experiment [1] deals with IL-12p70 production in PBMCs stimulated with LPS. As to the kind of experiment: Stimulation of IL-12p70 in human PBMCs stimulated with LPS (ELISA / multiplex immunoassay). It counts as cell-based. Conditions: PBMC, LPS 1 μg/mL, 72 hrs culture, read-out: Stimulation of IL-12p70 in PBMC's stimulated with LPS EC50. As to the method: (§1) Human PBMCs from six healthy donors were isolated from whole blood. PBMCs were resuspended in RPMI-10 at 1×10^6/mL and plated at a density of 2×10^5 per well (200 μL) in 96-well round bottom culture plates. Treatments or reference controls at different concentrations were prepared in DMSO according to client/supplier instruction and added directly to wells at a final volume of 0.2 μL per well (1:1000). After 2 hours, LPS was added to the culture (1 μg/mL final, 10 μL per well). Cells were cultured for 72 hrs at 37° C. and 5% CO2. Cell-free supernatants were collected at the end of culture period, transferred to new 96-well plates and frozen at −80° C. prior to assessment of IFN-γ, IL-10, IL-12p70 and TNF-α by ELISA and multiplex immunoassay.
(§2) Cultures were performed in triplicate to provide technical replicates and PBMCs from six healthy donors were included to provide biological replication.
(§3) All test and reference substances were formulated at 10 mM stock concentration in anhydrous DMSO, filtered and frozen in aliquots. Immediately prior to addition to assay, stock solutions were diluted in DMSO to prepare solutions at 1000 times the final required concentration. All final formulations were freshly prepared and kept sterile and light protected prior to the addition in cultures.
(§4) ELISA plates were read at 450 nm using an Infinite F50 (Tecan) absorbance reader and Magellan™ reader control and data analysis software. Multiplex immunoassays were read using a Luminex MAGPIX multiplexing system and ProcartaPlex Analyst 1.0 software. Graphs were prepared using Graphpad Prism (v6.0). Data were normalised to mean of respective vehicle control group (100%) within each biological replicate to account for donor variation.
(In general: ELISA stands for enzyme-linked immunosorbent assay.)

The subject of experiment [2] is IFN-γ production in PBMCs stimulated with LPS. As to the kind of experiment: Stimulation of IFN-γ in human PBMCs stimulated with LPS (ELISA / multiplex immunoassay). The format is cell-based. Conditions: LPS 1 μg/mL, 72 hrs culture. On the procedure:
as §1, §2, §3, §4

Experiment [3] deals with IL10 production in PBMCs stimulated with LPS. Nature of the experiment: Inhibition of IL10 in human PBMCs stimulated with LPS (ELISA / multiplex immunoassay). Conditions: for IC50: PBMC, human PBMCs, LPS 1 μg/mL, 72 hrs culture, read-out: Inhibition of IL10 in PBMC's stimulated with LPS IC50. It counts as cell-based. On the procedure: as §1, §2, §3, §4
Where [4] appears, read: versus 6-Amino-5-(2,4-difluorobenzoyl)-1-[2,6-difluorophenyl]pyridin-2(1H)-one and PH797804.

A value given as a limit tells only on which side of the number the result lay.

Chain of p38 MAPK (Q16539 whole entry): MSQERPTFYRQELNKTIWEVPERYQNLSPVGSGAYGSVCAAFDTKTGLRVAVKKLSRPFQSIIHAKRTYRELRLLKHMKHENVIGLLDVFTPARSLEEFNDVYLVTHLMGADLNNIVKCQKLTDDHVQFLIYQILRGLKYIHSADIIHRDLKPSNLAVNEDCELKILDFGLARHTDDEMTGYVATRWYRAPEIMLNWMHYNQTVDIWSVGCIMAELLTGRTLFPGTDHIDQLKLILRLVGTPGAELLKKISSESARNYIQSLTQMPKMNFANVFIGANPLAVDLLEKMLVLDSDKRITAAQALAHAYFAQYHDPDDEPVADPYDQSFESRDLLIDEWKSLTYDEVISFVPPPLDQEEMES

In the case of `Nc1c(C(=O)c2ccc(F)cc2F)ccc(=O)n1-c1c(F)cccc1F` [6-Amino-5-(2,4-difluorobenzoyl)-1-[2,6-difluorophenyl]pyridin-2(1H)-one], the results for the EC50 (at p38 MAPK; in experiment [1]) were < 1 nM and > 300 nM, respectively. Besides, in experiment [2], the “Stimulation of INF-γ in PBMCs stimulated with LPS EC50 (nM)” value is listed as “No stimulation”. Besides, the IC50 in experiment [3] was 10 nM.
Take `CNC(=O)c1ccc(C)c(-n2c(C)cc(OCc3ccc(F)cc3F)c(Br)c2=O)c1` [PH797804, 3-[3-Bromo-4-[(2,4-difluorophenyl)methoxy]-6-methyl-2-oxo-1(2H)-pyridinyl]-N,4-dimethyl-benzamide]: the EC50 in experiment [1] is > 300 nM. Besides, the “Stimulation of INF-γ in PBMCs stimulated with LPS EC50 (nM)” value in experiment [2] was “No stimulation”. For the same compound, in experiment [3], the IC50 amounted to 10 nM.
As to `C[C@H](NCCc1cc(F)c(-n2c(N)c(C(=O)c3ccc(F)cc3F)ccc2=O)c(F)c1)C(=O)OC(C)(C)C` [tert-Butyl N-(2-{4-[6-amino-5-(2,4-difluorobenzoyl)-2-oxopyridin-1(2H)-yl]-3,5-difluorophenyl}ethyl)-L-alaninate], the EC50 was 12 nM at p38 MAPK; < 1 nM in experiment [1]; 1 nM in experiment [2] (PBMC, read-out: Stimulation of INF-γ in PBMCs stimulated with LPS EC50). The “Fold less potent inhibitory activity against p38 MAPK than the reference inhibitors” value on p38 MAPK (setting [4]) is on record as 10 fold. Moreover, in experiment [3], the IC50 is < 1 nM. In addition, in experiment [3] (setting [4]), the “IL10 production inhibited at concentrations fold lower than conventional p38 MAPK inhibitors” value is “at least 10 fold”.

Broadly, the EC50 is the concentration at which the effect is half-maximal. What is called IC50 is the midpoint of a concentration-inhibition curve.

The values above are taken from patent publication US11382902B2, “Treatment of cancer by stimulation of IL-12 production” (Macrophage Pharma Limited, priority 2017, dated 2022).
